From patent US20240025862A1, “SUBSTITUTED N-PHENYLURACILS AND SALTS THEREOF, AND USE THEREOF AS HERBICIDAL ACTIVE SUBSTANCES” (Bayer Aktiengesellschaft, priority 2020, published 2024)

Columns and labels:
Assay type in all cases: in vivo
[1] = tested on: Oryza sativa (ORYSA); test: Post-emergence crop plant compatibility, greenhouse pot test (also comparative test C); conditions: vs untreated controls
How it was run: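 Visual damage versus untreated plants (0% = like control, 100% = plants died) was scored about 3 weeks after a post-emergence spray in greenhouse pots. Treatment: one-leaf stage, WP or EC in water at 600 l/ha with 0.5% additive; a/b/c mark different dosages on the same crop.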

[2] = tested on: Amaranthus retroflexus (AMARE); test: Post-emergence herbicidal action, greenhouse pot test; conditions: rated visually after about 3 weeks vs untreated controls, 100% = plants have died; for pest or weed control at 1.25 g/ha / pest or weed control at 5 g/ha / pest or weed control at 20 g/ha: Amaranthus retroflexus, 504 h; for pest or weed control at 1.25 g/ha: read-out: Post-emergence action at 1.25 g/ha against AMARE in %; for pest or weed control at 5 g/ha: read-out: Post-emergence action at 5 g/ha against AMARE in %; for pest or weed control at 20 g/ha: read-out: Post-emergence action at 20 g/ha against AMARE in %
How it was run: (§1)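 Activity was scored by eye about 3 weeks after treatment against untreated plants, where 100% means dead plants and 0% means no difference. Plants at the one-leaf stage received a foliar spray of WP or EC formulations in water plus 0.5% additive (600 l/ha, up to 20 g/ha). Plants were grown in sandy loam pots in a greenhouse for 2–3 weeks before spraying.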

[3] = tested on: Pharbitis purpurea (PHBPU); test: as above
How it was run: as §1

[4] = tested on: Avena fatua (AVEFA); test: as above; conditions: rated visually after about 3 weeks vs untreated controls, 100% = plants have died; for pest or weed control at 20 g/ha: Avena fatua, 504 h, read-out: Post-emergence action at 20 g/ha against AVEFA in %
How it was run: as §1

[5] = tested on: Veronica persica (VERPE); test: as above; conditions: for pest or weed control at 1.25 g/ha / pest or weed control at 5 g/ha / pest or weed control at 20 g/ha: Veronica persica, 504 h, read-out: Post-emergence action against VERPE
How it was run: as §1

[6] = tested on: Abutilon theophrasti (ABUTH); test: as above; conditions: rated visually after about 3 weeks vs untreated controls, 100% = plants have died; for pest or weed control at 1.25 g/ha / pest or weed control at 5 g/ha / pest or weed control at 20 g/ha: Abutilon theophrasti, 504 h; for pest or weed control at 1.25 g/ha: read-out: Post-emergence action at 1.25 g/ha against ABUTH in %; for pest or weed control at 5 g/ha: read-out: Post-emergence action at 5 g/ha against ABUTH in %; for pest or weed control at 20 g/ha: read-out: Post-emergence action at 20 g/ha against ABUTH in %
How it was run: as §1

[7] = tested on: Polygonum convolvulus (POLCO); test: as above; conditions: for pest or weed control at 20 g/ha: Fallopia convolvulus, 504 h, read-out: Post-emergence action against POLCO in %
How it was run: as §1

[8] = tested on: Viola tricolor (VIOTR); test: as above; conditions: for pest or weed control at 1.25 g/ha / pest or weed control at 5 g/ha / pest or weed control at 20 g/ha: Viola tricolor, 504 h, read-out: Post-emergence action against VIOTR
How it was run: as §1

[9] = tested on: Triticum aestivum (TRZAS); test: Post-emergence crop plant compatibility, greenhouse pot test; conditions: vs untreated controls
How it was run: (§2)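 Visual % damage vs untreated controls, scored ~3 weeks post-spray (100% = dead, 0% = as control). Plants in sandy loam, greenhouse; treated at one-leaf stage, 2–3 wk after sowing. WP/EC, aqueous, 0.5% additive, 600 l/ha. Suffixes a/b/c = different dosages.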

[10] = tested on: Zea mays (ZEAMX); test: as above; conditions: 1.25 g/ha, vs untreated controls
How it was run: as §2

[11] = tested on: Setaria viridis (SETVI); test: Post-emergence herbicidal action, greenhouse pot test (also comparative test C); conditions: for pest or weed control at 20 g/ha / pest or weed control at 1.25 g/ha / pest or weed control at 5 g/ha: Setaria viridis, 504 h; for pest or weed control at 20 g/ha: read-out: Post-emergence action against SETVI; for pest or weed control at 1.25 g/ha / pest or weed control at 5 g/ha: read-out: Post-emergence action against SETVI in %
How it was run: (§3)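 Greenhouse pot plants in sandy loam were sprayed post-emergence at the one-leaf stage (2–3 weeks after sowing) with WP or EC formulations plus 0.5% additive at 600 l/ha water. Activity was rated visually after about 3 weeks versus untreated controls (100% = dead, 0% = like control); rates were 20 g/ha or less, and 5 g/ha or less in the comparative test.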

[12] = tested on: Matricaria inodora (MATIN); test: as above
How it was run: as §3

[13] = tested on: Echinochloa crus-galli (ECHCG); test: as above; conditions: for pest or weed control at 5 g/ha / pest or weed control at 20 g/ha: Echinochloa crus-galli, 504 h, read-out: Post-emergence action against ECHCG in %
How it was run: as §3

[14] = tested on: Alopecurus myosuroides (ALOMY); test: as above; conditions: rated visually after about 3 weeks vs untreated controls, 100% = plants have died; for pest or weed control at 5 g/ha / pest or weed control at 20 g/ha: Alopecurus myosuroides, 504 h; for pest or weed control at 5 g/ha: read-out: Post-emergence action at 5 g/ha against ALOMY in %; for pest or weed control at 20 g/ha: read-out: Post-emergence action at 20 g/ha against ALOMY in %
How it was run: as §3

[15] = Ipomoea purpurea, 504 h, dosage 5 g/ha, read-out: Post-emergence action against PHBPU in %
[16] = Ipomoea purpurea, 504 h, dosage 20 g/ha, read-out: Post-emergence action against PHBPU in %
[17] = Tripleurospermum inodorum, 504 h, dosage 5 g/ha, read-out: Post-emergence action against MATIN in %
[18] = Tripleurospermum inodorum, 504 h, dosage 20 g/ha, read-out: Post-emergence action against MATIN in %

Cn1c(C(F)(F)F)cc(=O)n(-c2cc(Oc3ccccc3OCC(=O)OCC#N)c(C#N)cc2F)c1=O [I.9-176, Cyanomethyl (2-{2-cyano-4-fluoro-5-[3-methyl-2,6-dioxo-4-(trifluoromethyl)-3,6-dihydropyrimidin-1(2H)-yl]phenoxy}phenoxy)acetate]
100%: pest or weed control at 1.25 g/ha ([2]; 1.25 g/ha) | pest or weed control at 5 g/ha ([2]; 5 g/ha) | pest or weed control at 20 g/ha ([2]; 20 g/ha) | pest or weed control at 5 g/ha [3, 15] | pest or weed control at 20 g/ha [3, 16] | pest or weed control at 1.25 g/ha [5] | pest or weed control at 5 g/ha ([5]; 5 g/ha) | pest or weed control at 20 g/ha ([5]; 20 g/ha) | pest or weed control at 1.25 g/ha ([6]; 1.25 g/ha) | pest or weed control at 5 g/ha ([6]; 5 g/ha) | pest or weed control at 20 g/ha ([6]; 20 g/ha) | pest or weed control at 20 g/ha ([7]; dosage 20 g/ha) | pest or weed control at 1.25 g/ha ([8]; 1.25 g/ha) | pest or weed control at 5 g/ha ([8]; 5 g/ha) | pest or weed control at 20 g/ha ([8]; 20 g/ha) | pest or weed control at 20 g/ha ([11]; 20 g/ha) | pest or weed control at 1.25 g/ha ([11]; dosage 1.25 g/ha) | pest or weed control at 5 g/ha ([11]; dosage 5 g/ha) | pest or weed control at 5 g/ha [12, 17] | pest or weed control at 20 g/ha [12, 18] | Post-emergence action at 1.25 g/ha against ECHCG in % ([13]; 1.25 g/ha, rated visually after about 3 weeks vs untreated controls, 100% = plants have died) | pest or weed control at 5 g/ha ([13]; dosage 5 g/ha) | pest or weed control at 20 g/ha ([13]; dosage 20 g/ha) | pest or weed control at 5 g/ha ([14]; 5 g/ha) | pest or weed control at 20 g/ha ([14]; 20 g/ha)
0%: Post-emergence action against ORYSA (crop plant compatibility) ([1]; 1.25 g/ha) | Post-emergence action against TRZAS (crop plant compatibility) ([9]; 1.25 g/ha) | Post-emergence action against ZEAMX (crop plant compatibility) [10]
20%: Post-emergence action against ORYSA (crop plant compatibility) ([1]; 5 g/ha) | Post-emergence action against TRZAS (crop plant compatibility) ([9]; 5 g/ha)
80%: Post-emergence action at 5 g/ha against AVEFA in % ([4]; 5 g/ha) | pest or weed control at 20 g/ha ([4]; 20 g/ha)

Cn1c(C(F)(F)F)cc(=O)n(-c2cc(Oc3ccccc3OCC(=O)OCCOC(F)(F)F)c(Br)cc2F)c1=O [I.8-41]
20%: Post-emergence action against ORYSA (crop plant compatibility) ([1]; 5 g/ha) | Post-emergence action against TRZAS (crop plant compatibility) ([9]; 5 g/ha) | Post-emergence action against ZEAMX (crop plant compatibility) [10]
90%: Post-emergence action against POLCO in % ([7]; dosage 5 g/ha) | Post-emergence action against MATIN in % ([12]; dosage 1.25 g/ha) | Post-emergence action against MATIN in % ([12]; dosage 5 g/ha) | Post-emergence action against ECHCG in % ([13]; dosage 5 g/ha)
80%: Post-emergence action at 20 g/ha against AVEFA in % ([4]; 20 g/ha) | Post-emergence action at 1.25 g/ha against ABUTH in % ([6]; 1.25 g/ha) | Post-emergence action against POLCO in % ([7]; dosage 1.25 g/ha) | Post-emergence action at 5 g/ha against ALOMY in % ([14]; 5 g/ha)
100%: Post-emergence action at 1.25 g/ha against AMARE in % ([2]; 1.25 g/ha) | Post-emergence action at 5 g/ha against AMARE in % ([2]; 5 g/ha) | Post-emergence action at 20 g/ha against AMARE in % ([2]; 20 g/ha) | Post-emergence action against PHBPU in % ([3]; dosage 1.25 g/ha) | Post-emergence action against PHBPU in % ([3]; dosage 5 g/ha) | Post-emergence action against PHBPU in % ([3]; dosage 20 g/ha) | Post-emergence action against VERPE ([5]; 5 g/ha) | Post-emergence action against VERPE ([5]; 20 g/ha) | Post-emergence action at 5 g/ha against ABUTH in % ([6]; 5 g/ha) | Post-emergence action at 20 g/ha against ABUTH in % ([6]; 20 g/ha) | Post-emergence action against POLCO in % ([7]; dosage 20 g/ha) | Post-emergence action against VIOTR ([8]; 1.25 g/ha) | Post-emergence action against VIOTR ([8]; 5 g/ha) | Post-emergence action against VIOTR ([8]; 20 g/ha) | Post-emergence action against SETVI ([11]; 20 g/ha) | Post-emergence action against SETVI in % ([11]; dosage 1.25 g/ha) | Post-emergence action against SETVI in % ([11]; dosage 5 g/ha) | Post-emergence action against MATIN in % ([12]; dosage 20 g/ha) | Post-emergence action against ECHCG in % ([13]; dosage 20 g/ha) | Post-emergence action at 20 g/ha against ALOMY in % ([14]; 20 g/ha)
0%: Post-emergence action against ORYSA (crop plant compatibility) ([1]; 1.25 g/ha) | Post-emergence action against TRZAS (crop plant compatibility) ([9]; 1.25 g/ha)

COCC(C)OC(=O)COc1ccccc1Oc1cc(-n2c(=O)cc(C(F)(F)F)n(C)c2=O)c(F)cc1Cl (stereo not drawn) [I.7-94, 1-Methoxypropan-2-yl (2-{2-chloro-4-fluoro-5-[3-methyl-2,6-dioxo-4-(trifluoromethyl)-3,6-dihydropyrimidin-1(2H)-yl]phenoxy}phenoxy)acetate]
100%: pest or weed control at 1.25 g/ha ([2]; 1.25 g/ha) | pest or weed control at 5 g/ha ([2]; 5 g/ha) | pest or weed control at 20 g/ha ([2]; 20 g/ha) | pest or weed control at 1.25 g/ha ([3]; Ipomoea purpurea, 504 h, dosage 1.25 g/ha, read-out: Post-emergence action against PHBPU in %) | pest or weed control at 5 g/ha [3, 15] | pest or weed control at 20 g/ha [3, 16] | pest or weed control at 1.25 g/ha [5] | pest or weed control at 5 g/ha ([5]; 5 g/ha) | pest or weed control at 20 g/ha ([5]; 20 g/ha) | pest or weed control at 1.25 g/ha ([6]; 1.25 g/ha) | pest or weed control at 5 g/ha ([6]; 5 g/ha) | pest or weed control at 20 g/ha ([6]; 20 g/ha) | pest or weed control at 20 g/ha ([7]; dosage 20 g/ha) | pest or weed control at 5 g/ha ([8]; 5 g/ha) | pest or weed control at 20 g/ha ([8]; 20 g/ha) | pest or weed control at 20 g/ha ([11]; 20 g/ha) | pest or weed control at 1.25 g/ha ([11]; dosage 1.25 g/ha) | pest or weed control at 5 g/ha ([11]; dosage 5 g/ha) | pest or weed control at 20 g/ha [12, 18] | pest or weed control at 5 g/ha ([13]; dosage 5 g/ha) | pest or weed control at 20 g/ha ([13]; dosage 20 g/ha)
80%: pest or weed control at 20 g/ha ([4]; 20 g/ha) | pest or weed control at 1.25 g/ha ([8]; 1.25 g/ha) | pest or weed control at 1.25 g/ha ([12]; Tripleurospermum inodorum, 504 h, dosage 1.25 g/ha, read-out: Post-emergence action against MATIN in %) | pest or weed control at 5 g/ha [12, 17] | pest or weed control at 5 g/ha ([14]; 5 g/ha) | pest or weed control at 20 g/ha ([14]; 20 g/ha)
10%: Post-emergence action against ZEAMX (crop plant compatibility) [10]
20%: Post-emergence action against ORYSA (crop plant compatibility) ([1]; 5 g/ha) | Post-emergence action against TRZAS (crop plant compatibility) ([9]; 1.25 g/ha)
0%: Post-emergence action against ORYSA (crop plant compatibility) ([1]; 1.25 g/ha)
